According to patent publication US20010044404A1, “Cleaning process and composition” (3M Innovative Properties Company, priority 1995, published 2001):

Columns and labels:
[1] = Rinse agent in co-solvent cleaning of solder flux; details: solvating agent 1 minute at about 55° C., then 30 seconds in boiling solvent
Procedure: The ability of alkoxy-substituted perfluorocompounds to function as a rinse agent in a co-solvent cleaning process was evaluated. The above-described aluminum coupon was coated with solder flux (available from Alpha Metals as Alpha 611 rosin, mildly activated flux) by immersing the coupon into a flux-filled beaker. The flux-coated coupon was then dried using a forced air convection drier. The initial amount of the flux on the coupon was determined by weighing it on an analytical balance to the nearest 0.1 mg. The coupon was immersed in a container of a mixed solvating agent comprising approximately 50% methyl decanoate and 50% dipropylene glycol di-n-butyl ether and was sonicated for 1 minute at approximately 55° C. The coupon was then immersed for 30 seconds into alkoxy-substituted perfluorocompound which had been heated to its boiling point. The coupon was weighed again, and the results were recorded in Table 5 below as percent oil removed from the coupon.

[2] = Mineral oil removal from aluminum coupon, sonication in solvent; details: sonicated 1 minute
Procedure: In the following Examples and Comparative Examples, the cleaning ability of the alkoxy-substituted perfluorocompounds used in the cleaning process of the invention was further evaluated. A 1.28 cm×1.28 cm×0.225 cm wire-wrapped, aluminum coupon was coated with white heavy mineral oil (available from Aldrich Chemical) by immersing the coupon in an oil-filled beaker. The initial amount of the oil on the coupon was determined by weighing it on an analytical balance to the nearest 0.1 mg. The coupon was immersed in a container of solvent and sonicated for 1 minute at the indicated temperature (see Table 3 below for the solvents and temperatures used). The coupon was then weighed again, and the results were recorded in Table 3 as percent oil removal.

[3] = Closed cup flash point ASTM D3278-96; type: physicochemical
Procedure: (§1) Various properties were measured for C4F9OCH3, CHClFCF2OCH3, and blends of each ether compound with cosolvent, trans-1,2-dichloroethylene (hereinafter, t-DCE) or n-butyl bromide, at various weight ratios.

[4] = Stability in the presence of acid (96% sulfuric acid, GLC); type: physicochemical; details: neat ether; sulfuric acid as in Stability in the Presence of Acid section
Procedure: To assess hydrolytic stability under acidic conditions, C4F9OCH3 (15 g, 0.06 mole) was combined with sulfuric acid (10 g of 96% by weight, 0.097 mole) in a 50 mL flask containing a stir bar and fitted with a reflux condenser. The resulting mixture was stirred for 16 hours at room temperature, and then the resulting upper fluorochemical phase was separated from the resulting lower sulfuric acid phase. […] Chem. 49, 4007 (1984), which states that “[f]luorine atoms attached to carbon which also bears an alkyl ether group are known to be labile to electrophilic reagents. They are readily hydrolyzed in concentrated sulfuric acid, thus providing a route to some esters of fluoroacids.”

[5] = Solvency properties: largest normal hydrocarbon alkane soluble at 50 percent by volume
Procedure: A number of potential solvents were tested for their ability to dissolve hydrocarbons of increasing molecular weight according to the procedure described in U.S. Pat. No. 5,275,669 (Van Der Puy et al.), the description of which is incorporated herein by reference. The data shown in Table 1 were obtained by determining the largest normal hydrocarbon alkane which was soluble in a particular solvent at a level of 50 percent by volume. The numbers in the Table correspond with the carbon number of the largest alkane, e.g., “8” refers to octane. Measurements were made from room temperature up to the boiling point of the solvent. For comparative purposes, hydrofluorocarbons (HFCs) and perfluorocarbons (PFCs) were also tested using this method.
Using essentially the above-described method, the solvency properties of other alkoxy-substituted perfluorocompounds were tested at room temperature.

[6] = Open cup flash point ASTM D1310-86; type: physicochemical
Procedure: as §1

[7] = Stability in the presence of base: aqueous NaOAc, fluoride ion measurement; type: physicochemical; details: 10 g with 10 g 0.1M NaOAc, 110° C., 16 hours
Procedure: To assess hydrolytic stability, a ten gram sample of alkoxy-substituted perfluorocompound was combined with 10 g of 0.1M NaOAc and sealed in a 2.54 cm (internal diameter) by 9.84 cm Monel™ 400 alloy (66% nickel, 31.5% copper, and 1.2% iron and several minor components) tube (available from Paar Instrument Co. of Moline, Ill. as Part Number 4713cm). The tube was heated at 110° C. in a forced air convection oven for 16 hours. After cooling to room temperature, a 1 mL sample of the tube contents was diluted with 1 mL of total ionic strength adjustment buffer (TISAB, available from Orion Research, Inc., a mixture of 1,2-cyclohexylene dinitrilotetraacetic acid, deionized water, sodium acetate, sodium chloride, and acetic acid). The concentration of fluoride ion (resulting from any reaction of the perfluorocompound with the aqueous NaOAc) was measured using an Orion Model 720A Coulombmeter with a F-specific electrode which had been previously calibrated using 0.5 and 500 ppm F^− solutions. Based on the measured fluoride ion concentration, the rate at which HF had been generated by reaction of the aqueous NaOAc with the perfluorocompound was calculated.

[8] = Pump oil removal in vapor of boiling n-C6H14/perfluorocompound mixture; details: vapor of boiling 40 volume % n-C6H14, 60 volume % fluorinated component; 60 seconds
Procedure: (§2) The above-described test coupon was dipped into DuoSeal Pump Oil (available from Sargent-Welch) and was then immersed in the vapor of a boiling mixture of 40 volume % n-C6H14 and 60 volume % alkoxy-substituted perfluorocompound (a cleaning composition of the invention), for 60 seconds. The percent oil removal was determined in the above-described manner.

[9] = Paraffinic oil removal: solvating agent, then rinse in boiling solvent; details: methyl caproate/dipropylene glycol di-n-butyl ether 30 seconds, boiling rinse 30 seconds
Procedure: The above-described test coupon was dipped into a paraffinic oil comprising a mixture of linear and branched hydrocarbons (DuoSeal Pump Oil, available from Sargent Welch), was immersed in mixed solvating agent comprising approximately 50% methyl caproate and 50% dipropylene glycol di-n-butyl ether for 30 seconds, and was then rinsed in boiling alkoxy-substituted perfluorocompound for 30 seconds. The percent oil removal was determined in the above-described manner.

[10] = Pump oil removal with n-C6H14/perfluorocompound mixture at room temperature, ultrasonic; details: 40 volume % n-C6H14, 60 volume % fluorinated component, 60 seconds
Procedure: as §2, with “in” for “in the vapor of”, “a” for “a boiling”, “invention)” for “invention),”, “seconds at room temperature with ultrasonic agitation.” for “seconds.”

[11] = Perfluoropolyether oil removal in solvent vapor; details: Brayco 815Z; vapor over boiling liquid, 60 seconds
Procedure: The above-described aluminum coupon was dipped into Brayco 815Z perfluoropolyether oil (available from Castrol Inc., molecular weight of about 10,000) and then immersed in alkoxy-substituted perfluorocompound vapor (over the boiling liquid) for 60 seconds. The percent oil removal was determined in the above-described manner.

[12] = Pump oil removal with boiling mixed terpenes/perfluorocompound mixture; details: boiling mixture 40 volume % mixed terpenes, 60 volume % fluorinated component
Procedure: The above-described test coupon was dipped into DuoSeal Pump Oil (available from Sargent-Welch), was immersed in a boiling mixture of 40 volume % of a solvating agent comprising mixed terpenes having a boiling range of 243-274° C. and 60 volume % of alkoxy-substituted perfluorocompound (a cleaning composition of the invention), was cooled for 60 seconds, and was then immersed in mixture vapor for 30 seconds. The percent oil removal was determined in the above-described manner.

[13] = Ability to dissolve halogenated oils (miscibility); type: physicochemical; details: room temperature
Procedure: The ability of alkoxy-substituted perfluorocompounds to dissolve several halogenated oils was determined by adding a measured amount of oil to alkoxy-substituted perfluorocompound until the resulting mixture became turbid or phase-split. […] The results (shown in Table 12) indicate that alkoxy-substituted perfluorocompounds have very high ability to dissolve halogenated oils. Thus, the perfluorocompounds can be used as carrier solvents for halogenated oils in the deposition of coatings of such oils on substrate surfaces.

[14] = Flash point testing ASTM D3278-89; type: physicochemical
Procedure: The alkoxy-substituted perfluorocompounds C4F9OCH3, C4F9OC2H5, and c-C6F11OCH3 were tested for flash point by the standard method defined by ASTM D3278-89.

[15] = Mineral oil removal with boiling methyl decanoate/perfluorocompound mixture; details: boiling mixture 40 volume % methyl decanoate, 60 volume % perfluorocompound
Procedure: The above-described test coupon was dipped in white heavy mineral oil (available from Aldrich Chemical), was immersed in a boiling single-phase mixture of 40 volume % of a solvating agent comprising essentially methyl decanoate and 60 volume % of alkoxy-substituted perfluorocompound (a cleaning composition of the invention) for 60 seconds, was cooled for 60 seconds, and was then immersed in mixture vapor for 30 seconds. The percent oil removal was determined in the above-described manner.

[16] = Fluorinated oil removal from aluminum coupon; details: Krytox 157FSM, room temperature
Procedure: Using essentially the same procedure as that described in Examples 8-10, the ability of the alkoxy-substituted perfluorocompounds to remove a fluorinated oil was evaluated. As in the previous Examples, a coupon was immersed in Krytox™ 157FSM perfluoropolyether oil having carboxylic acid end groups (available from DuPont), and the percent oil remaining after immersion in the solvent (at room temperature) was determined.

[17] = 20 weight % ether, 80 % n-butyl bromide
[18] = 30 weight % ether, 70 % n-butyl bromide
[19] = 50 weight % ether, 50 % n-butyl bromide
[20] = 80 weight % ether, 20 % n-butyl bromide
[21] = Brayco 815Z Perfluoropolyether (MW about 10,000)
[22] = Chlorotrifluoroethylene Fluid (Inland 41 Vacuum Pump Oil)
[23] = Fomblin AM-2001 Functionalized Perfluoropolyether

With FC(F)C(F)(F)C(F)(F)C(F)(F)C(F)(F)C(F)(F)F [Example C6F13H, C6F13H, reference compound] as the compound, how does the “% Removed” value [1] read?
The value was 91.2%.

What about the percent oil removal ([2]; 23 ° C.) of the same compound?
The percent oil removal was 71.7%.

What about the percent oil removal ([2]; 50 ° C.) of the same compound?
The percent oil removal was 86.8%.

What does the source list for COC(F)(F)C(F)Cl (centres unmarked) [CHClFCF2OCH3, 2-chloro-1,1,2-trifluoroethyl methyl ether, reference compound]?
Closed Cup Flash Point (ASTM D3278-96) [3, 17]: 50 (7) ° F. (° C.); Closed Cup Flash Point (ASTM D3278-96) [3, 18]: 45 (10) ° F. (° C.); Closed Cup Flash Point (ASTM D3278-96) [3, 19]: 45 (7) ° F. (° C.); Closed Cup Flash Point (ASTM D3278-96) [3, 20]: 50 (10) ° F. (° C.); Closed Cup Flash Point (ASTM D3278-96) ([3]; 100 weight % ether, 0 % n-butyl bromide, raised to 140° F. (60° C.)): 45 (7) ° F. (° C.); Stability in Presence of Acid: conversion to ester [4]: 100%; Largest Carbon Number of Longest Hydrocarbon Alkane to Dissolve [5, 17]: 21; Largest Carbon Number of Longest Hydrocarbon Alkane to Dissolve ([5]; 20 weight % ether, 80 % t-DCE): 27; Largest Carbon Number of Longest Hydrocarbon Alkane to Dissolve [5, 18]: 21; Largest Carbon Number of Longest Hydrocarbon Alkane to Dissolve [5, 19]: 20; Largest Carbon Number of Longest Hydrocarbon Alkane to Dissolve ([5]; 50 weight % ether, 50 % t-DCE): 21; Largest Carbon Number of Longest Hydrocarbon Alkane to Dissolve [5, 20]: 19; Largest Carbon Number of Longest Hydrocarbon Alkane to Dissolve ([5]; 80 weight % ether, 20 % t-DCE): 19; Largest Carbon Number of Longest Hydrocarbon Alkane to Dissolve ([5]; 100 weight % ether, 0 % n-butyl bromide): 18; Largest Carbon Number of Longest Hydrocarbon Alkane to Dissolve ([5]; 100 weight % ether, 0 % t-DCE): 18; Open Cup Flash Point (ASTM D1310-86) ([6]; 20 weight % ether, 80 % t-DCE): 80 (27) ° F. (° C.); Open Cup Flash Point (ASTM D1310-86) ([6]; 50 weight % ether, 50 % t-DCE): 80 (27) ° F. (° C.); Open Cup Flash Point (ASTM D1310-86) ([6]; 80 weight % ether, 20 % t-DCE): 85 (29) ° F. (° C.); Open Cup Flash Point (ASTM D1310-86) ([6]; 100 weight % ether, 0 % t-DCE): 76 (24) ° F. (° C.)

What does the source list for FC(F)(Cl)C(F)(Cl)Cl [CF2ClCFCl2, reference compound]?
percent oil removal ([2]; 23 ° C.): 98.9%; percent oil removal ([2]; 50 ° C.): 98.7%

Which “HF Generation Rate” value [7] does the source give for FC(C(F)C(F)(F)C(F)(F)F)C(F)(F)F (centres unmarked) [reference compound] here?
Its value is 42.9 µg/g/h.

With FC(F)(F)C(F)(F)C(F)(F)C(F)(F)C(F)(F)C(F)(F)F [Example C6F14, C6F14, reference compound] as the compound, how does the “Percent Soil Removed” value [8] read?
The value was 73.8%.

And the “% Removed” value [1]?
Its value is 51.9%.

And the “Percent Soil Removed” value [9]?
The value was 89.2%.

And the percent oil removal ([2]; 23 ° C.)?
Its percent oil removal is 54.9%.

What about the percent oil removal ([2]; 50 ° C.) of the same compound?
Its percent oil removal is 67.6%.

And the “Percent Soil Removed” value [10]?
The value was 88.5%.

And the “Percent Soil Removed” value [11]?
Its value is 92.9%.

And the “Percent Soil Removed” value [12]?
The value was 75.7%.

For C4F9OC2H5 [Example C4F9OC2H5], which “Percent Soil Removed” value [8] is on record?
Its value is 97.1%.

And the “% Removed” value [1]?
Its value is 100.0%.

And the Miscibility with solute [13, 21]?
Its Miscibility with solute is “Miscible (greater than or equal to 50 percent by volume solubility at room temperature)”.

And the Miscibility with solute [13, 22]?
The Miscibility with solute was “Miscible (greater than or equal to 50 percent by volume solubility at room temperature)”.

And the Miscibility with solute [13, 23]?
The Miscibility with solute was “Miscible (greater than or equal to 50 percent by volume solubility at room temperature)”.

And the “Percent Soil Removed” value [9]?
Its value is 100.0%.

And the percent oil removal ([2]; 23 ° C.)?
Its percent oil removal is 56.0%.

What about the percent oil removal ([2]; 50 ° C.) of the same compound?
Its percent oil removal is 99.2%.

What about the percent oil removal ([2]; 60 ° C.) of the same compound?
Its percent oil removal is 100.0%.

What about the “Percent Soil Removed” value [10] of the same compound?
Its value is 99.0%.

What about the Flash point [14] of the same compound?
The Flash point was “no flash point”.

What about the “Percent Soil Removed” value [11] of the same compound?
The value was 93.3%.

And the “Percent Soil Removed” value [15]?
Its value is 94.28%.

And the “HF Generation Rate” value [7]?
Its value is 0.22 µg/g/h.

What about the “% Removed” value [16] of the same compound?
Its value is 99.3%.

And the “Percent Soil Removed” value [12]?
Its value is 99.4%.

For COC1(F)C(F)(F)C(F)(F)C(F)(F)C(F)(F)C1(F)F [c-C6F11OCH3], which “% Removed” value [1] is on record?
Its value is 100.0%.

And the Miscibility with solute [13, 21]?
The Miscibility with solute was “Miscible (greater than or equal to 50 percent by volume solubility at room temperature)”.

What about the Miscibility with solute [13, 22] of the same compound?
The Miscibility with solute was “Miscible (greater than or equal to 50 percent by volume solubility at room temperature)”.

And the Miscibility with solute [13, 23]?
The Miscibility with solute was “Miscible (greater than or equal to 50 percent by volume solubility at room temperature)”.

What about the percent oil removal ([2]; 23 ° C.) of the same compound?
The percent oil removal was 74.4%.

And the percent oil removal ([2]; 50 ° C.)?
Its percent oil removal is 96.5%.

And the percent oil removal ([2]; 60 ° C.)?
Its percent oil removal is 99.8%.

And the Flash point [14]?
The Flash point was “no flash point”.

And the “HF Generation Rate” value [7]?
Its value is 0.33 µg/g/h.

What about the “% Removed” value [16] of the same compound?
Its value is 96.5%.
